{
  "source": "patent US20200138764A1",
  "about": "“METHODS AND DEVICES FOR ACTIVATING ADIPOSE TISSUE” (The Procter & Gamble Company, priority 2018, published 2020)",
  "key": {"adipocyte": {"tested_on": "adipocyte", "experiment": "In vivo browning study in lean mice: Fat % by image analysis of H&E stained tissue", "set-up": "species or system Mice (C57BJ/6)", "method": "(§1) Mice (8-10 weeks old males C57BJ/6 strain) were obtained from a commercial vendor Charles River Laboratories. The animal study protocols were approved by the Institutional Animal Care and Use Committee, at the Procter & Gamble Company. Mice were acclimated to the facility for 14 days prior to initiating the study. From arrival, mice were housed in solid-bottom shoebox styled cages within room temperature of 22±2° C. with ad libitum access to water and regular rodent chow diet on a 12 h light/dark cycle. Mice were single housed and offered bedding and various enrichment options. The bedding and nesting material allowed the mice to thermoregulate to their desired level of comfort. Body weights were recorded at the beginning of the study, on each dosing day prior to dosing, and final weights were recorded at the end of the study. Overall food consumption, fecal output, and body appearance were monitored during cage side clinical observations but were not scientifically measured or tracked. During the dosing period, the animals were observed several times per day (for example, before and during injection, immediately to 30-min post injection, a few hours after injection, and end of work day).\n[…] The injection was performed using a 25-27-gauge ½-⅝″ length needle via a subcutaneous (SC) injection near or into the inguinal fat pad region of the lower abdomen. Dosing was done twice a week injections over 3 weeks. Necropsy was done at week 4. […]\nSegments of adipocyte and inter-cellular regions in a stained image were identified by Python […] package. […] The threshold between adipocyte and inter-cellular regions in a converted image was detected by the Otsu filter function of the […]. The detected value was adjusted by multiplying 1.1.\nThe ratio of adipocyte in an image was calculated from the pixel number of the segments—Adipocyte Pixel was divided by Total Pixel.\nThe significance of the difference in Adipocyte Ratio between treatment and control groups was assessed by the Negative Binomial Generalized Linear Mixed-Effects Model using glmer.nb function of R lme4 package. […]"}, "fat tissue": {"tested_on": "fat tissue", "experiment": "qPCR biomarker analysis of fat tissue, in vivo", "set-up": "species or system Mice (C57BJ/6)", "conditions": "mouse fat tissue, SC injection twice a week over 3 weeks", "method": "as §1\nThree groups of animals were treated with mirabegron (i.e. positive control) (n=4), placebo (n=2) and Formula III (n=6) on the left side while the right side received placebo in all three groups. The injection was performed using a 25-27-gauge ½-⅝″ length needle via a subcutaneous (SC) injection near or into the inguinal fat pad region of the lower abdomen. Dosing was done twice a week injections over 3 weeks. Necropsy was done at week 4. Test materials were administered at room temperature and in a neutral pH range. Three days after last dosing animals were euthanized with CO2 inhalation, inguinal fat pads were harvested, and tissues were processed for histology and biomarker analysis.\nThe qPCR biomarker analysis was conducted from flash frozen fat tissue from mouse study described above. First, RNA was manually extracted with RNAdvance Tissue kit (Agencourt). RNA was extracted from flash frozen fat tissue according to manufactuer's directions. For example, 5 mm steel beads were placed in the freezer for approximately 15-20 minutes. Next, Qiagen Buffer RLT was cooled to 4° C. for 20 minutes and placed in a 96 well 1.5 mL tube rack for sample transfer. Isopropanol was added to Agencourt wash buffer. 100 mL aliquots of 70% ethanol in water were prepared. The RNA Tissue beads were allowed to warm to 22° C. (˜30 minutes), and then the beads were shaken vigorously and intermittently for at least 15-20 minutes. 1 stainless steel bead was added to a 2 mL round bottom tube stored on dry ice. The tissue sample was then transferred to the 2 mL round bottom tube.\nThe tube rack was placed on wet ice. Then, the tubes were transferred from dry ice to the rack in wet ice and 350 μL of cold buffer RLT were added to the tubes. The beads were beaten at 30 Hz for 2 minutes. After bead beating, samples were centrifuged for 2 minutes. The supernatant was transferred into 96 well deep well isolation plate.\n80 μL of RNATissue beads were combined with 320 μL of isopropanol to create a Bind Buffer. This solution was prepared fresh for each isolation with any unused solution discarded.\n400 μL of Bind Buffer was added to the to RLT mixture and slowly mixed. The solution was incubated at room temperature for 10 minutes. Special care was taken to avoid the formation of bubbles while tip mixing.\nThe mixture was placed on a magnet (96 well plate—Agencourt SPRIPlate) for 6-10 minutes. After the solution became clear, the supernatant was removed from each tube while the tubes remained on the magnet and the solution was discarded.\nThe tubes were removed from the magnet and the pellets were washed with 800 μL of the Isopropanol Wash Buffer ten times. […]"}},
  "data": [
    {"smiles": "CC(C)[C@@H]1CC[C@@H](C)C[C@H]1C(=O)NC[C@@H](NC(=O)[C@H](C)N)c1ccccc1", "note": "[Formula III]", "values": [
      {"measurement": "Average Fat % (Adipocyte Pixel / Total Pixel)", "setting": "adipocyte; mice, SC injection, Formula III one side and mirabegron other side, high and middle dosage merged, H&E images", "result": 90.81, "unit": "%"},
      {"measurement": "treatment effect of reducing the adipocyte ratio", "setting": "adipocyte; treatment vs control, p-value 0.0278, negative binomial mixed-effects model", "result": "statistically significant"},
      {"measurement": "Average Fold vs Placebo: AdipoQ", "setting": "fat tissue", "result": 4.7},
      {"measurement": "Average Fold vs Placebo: Adrb3", "setting": "fat tissue", "result": 18.3},
      {"measurement": "Average Fold vs Placebo: Cidea", "setting": "fat tissue", "result": 28.0},
      {"measurement": "Average Fold vs Placebo: Cox7a1", "setting": "fat tissue", "result": 5.7},
      {"measurement": "Average Fold vs Placebo: Cox8b", "setting": "fat tissue", "result": 19.0},
      {"measurement": "Average Fold vs Placebo: Dio2", "setting": "fat tissue", "result": 1.8},
      {"measurement": "Average Fold vs Placebo: Elovl3", "setting": "fat tissue", "result": 37.5},
      {"measurement": "Average Fold vs Placebo: IL6", "setting": "fat tissue", "result": 0.8},
      {"measurement": "Average Fold vs Placebo: Ppargc1", "setting": "fat tissue", "result": 3.0},
      {"measurement": "Average Fold vs Placebo: Prdm16", "setting": "fat tissue", "result": 3.5},
      {"measurement": "Average Fold vs Placebo: Tfap2a", "setting": "fat tissue", "result": 1.2},
      {"measurement": "Average Fold vs Placebo: UCP1", "setting": "fat tissue", "result": 73.2}
    ]}
  ]
}
